Among the data in ChEMBL document CHEMBL1126432, “Synthesis and biological activity of carbocyclic derivatives of the potent antiviral agent 9-[2-(phosphonomethoxy)ethyl]guanine (PMEG)” (Bioorg Med Chem Lett, 1992) are IC50 values, retold here.

Common to all, as to format: functional, cell-based
One assay has as its system Vero. The experiment in a line: In vitro antiviral activity expressed as IC50 against herpes simplex virus type 2 (HSV-2) in vero cells. The note with it: Chlorocebus sabaeus.
For assay [1], the system named is CCRF-CEM. As to the kind of experiment: In vitro antiviral activity expressed as IC50 against HIV (CEM cells). The note with it: Homo sapiens.
For assay [2], the system named is CCRF-CEM. The experiment in a line: In vitro antiviral activity expressed as IC50 against HIV (CEM cells); 11-25. To be noted: Homo sapiens.

In brackets after ≈: the same amount, converted by molar mass. Some results are limits rather than exact numbers.

With `Nc1nc(O)c2ncn([C@H]3CCC[C@H]3OCP(=O)(O)O)c2n1`, the values for the IC50 with Vero and in the assay on CCRF-CEM [1] were more than 100 µg/mL and 20 µg/mL (≈ 60.7 µM), respectively. In the assay on CCRF-CEM [2], `CC(Cn1cnc2c(=O)[nH]c(N)nc21)OCP(=O)(O)O` (stereo not drawn) displayed an IC50 of 11 µg/mL (≈ 36.3 µM). On to `Nc1nc(O)c2ncn([C@H]3C=C[C@@H](OCP(=O)(O)O)C3)c2n1`, for which the IC50 in the assay on Vero is more than 100 µg/mL; in the assay with CCRF-CEM [1], 66 µg/mL (≈ 202 µM).

For the molecule `Nc1nc(O)c2ncn([C@H]3CCC[C@@H]3OCP(=O)(O)O)c2n1`, the IC50 in the assay on Vero and with CCRF-CEM [1] was more than 100 µg/mL each time. Turning to `Nc1nc(O)c2ncn([C@@H]3C=C[C@H](OCP(=O)(O)O)C3)c2n1`, half-maximal inhibition in the assay on CCRF-CEM [1] (IC50) was put at 26 µg/mL (≈ 79.5 µM). Same read-out and setting: for `CC(COCP(=O)(O)O)n1cnc2c(O)nc(N)nc21` (stereo not drawn) the value was 3 µg/mL (≈ 9.89 µM).

Take `Nc1nc(O)c2ncn([C@H]3CC[C@@H](OCP(=O)(O)O)C3)c2n1`: the IC50 in the assay with Vero and in the assay on CCRF-CEM [1] was more than 100 µg/mL in each case.

Take `Nc1nc2c(ncn2CCOCP(=O)(O)O)c(=O)[nH]1` [GS-438]: the figures for the IC50 in the assay with Vero and in the assay with CCRF-CEM [1] were 0.7 µg/mL (≈ 2.42 µM) and 0.2 µg/mL (≈ 0.692 µM), respectively.
